Values after ≈ are worked out from the molar mass of the structure shown.

This series in a line: Toxicity against Artemia salina. It counts as organism-based. As to conditions: in vivo, read-out: LD50 (the source's name).
Turning to `C/C(=C\CCc1coc(Cc2ccoc2)c1)CCCC(C)CC(=O)C(O)C(C)Cl` (centres undefined), the LC50 is 8.2 µg/mL (≈ 19.5 µM).
In the case of `CC1=C(O)/C(=C/[C@H](C)CCC/C(C)=C/CCc2coc(Cc3ccoc3)c2)OC1=O` [IRCININ 1] it was 2.4 µg/mL (≈ 5.85 µM); in that of `C/C(=C/CCC(C)CC(=O)C(O)C(C)Cl)CCCc1coc(Cc2ccoc2)c1` (centres undefined), 8.6 µg/mL (≈ 20.4 µM); in that of `CC1=C(O)/C(=C/[C@H](C)CC/C=C(/C)CCCc2coc(Cc3ccoc3)c2)OC1=O` [IRCININ 2], 2.7 µg/mL (≈ 6.58 µM).

The values above are taken from ChEMBL document CHEMBL1158926, “Norsesterterpenes from the North Adriatic Sponge Ircinia oros” (J Nat Prod, 1990).
